For 80 compounds, IC50 results are on record in PubChem BioAssay AID1645862 (Buhrlage Lab, Dana-Farber Cancer Institute and Novartis …, 2021).

For this assay, the target named is Ubiquitin carboxyl-terminal hydrolase 8 (Homo sapiens) (UniProt P40818). The assay is described as follows: Ubiquitin-specific protease 8 inhibitors, concentration-effect, biochemical, validation of initial actives (AID 1645862).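 Also: potency reflects inhibition of USP8 cleavage of a ubiquitin rhodamine substrate.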 The note with it: recombinant USP8 deubiquitinase activity assay.
Ubiquitin carboxyl-terminal hydrolase 8 (Homo sapiens), sequence (P40818 whole entry, looked up): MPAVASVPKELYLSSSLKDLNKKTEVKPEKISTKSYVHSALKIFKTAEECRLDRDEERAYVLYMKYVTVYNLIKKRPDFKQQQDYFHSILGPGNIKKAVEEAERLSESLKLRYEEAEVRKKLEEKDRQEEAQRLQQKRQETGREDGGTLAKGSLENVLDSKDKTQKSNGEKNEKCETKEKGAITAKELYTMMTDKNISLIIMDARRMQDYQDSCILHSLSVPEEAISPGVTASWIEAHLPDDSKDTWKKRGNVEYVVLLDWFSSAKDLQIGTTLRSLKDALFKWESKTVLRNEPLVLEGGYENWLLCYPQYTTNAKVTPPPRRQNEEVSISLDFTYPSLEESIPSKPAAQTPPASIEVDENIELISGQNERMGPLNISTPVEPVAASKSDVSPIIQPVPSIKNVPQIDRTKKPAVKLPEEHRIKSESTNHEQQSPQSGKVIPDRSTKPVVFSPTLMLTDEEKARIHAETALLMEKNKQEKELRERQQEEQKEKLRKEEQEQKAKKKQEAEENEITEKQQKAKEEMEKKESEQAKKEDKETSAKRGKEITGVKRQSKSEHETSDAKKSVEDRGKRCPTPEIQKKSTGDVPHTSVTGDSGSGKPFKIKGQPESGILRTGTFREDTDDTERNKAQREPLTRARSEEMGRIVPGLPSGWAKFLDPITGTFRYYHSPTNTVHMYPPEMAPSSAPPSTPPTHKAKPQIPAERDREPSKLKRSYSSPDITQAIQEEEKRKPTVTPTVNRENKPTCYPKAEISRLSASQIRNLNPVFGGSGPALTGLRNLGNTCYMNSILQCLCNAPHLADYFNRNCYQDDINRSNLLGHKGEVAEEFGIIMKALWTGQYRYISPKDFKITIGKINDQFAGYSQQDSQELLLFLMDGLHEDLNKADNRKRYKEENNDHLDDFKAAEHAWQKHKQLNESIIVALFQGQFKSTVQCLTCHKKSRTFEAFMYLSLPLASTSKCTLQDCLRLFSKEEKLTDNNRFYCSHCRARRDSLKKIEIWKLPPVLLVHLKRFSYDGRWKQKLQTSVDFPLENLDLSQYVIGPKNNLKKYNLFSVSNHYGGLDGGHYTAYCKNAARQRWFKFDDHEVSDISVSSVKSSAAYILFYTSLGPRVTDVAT

The source made the active and inactive calls. No rule for the calls is given here.

One may read the IC50 as the concentration needed to halve the response being measured. Regarding `Cc1ccccc1-c1nc(-c2cn(CC(=O)Nc3ccccc3)cn2)no1`, the IC50 was > 40 µM (inactive). In the case of `COc1ccc(-c2cc3nc([C@H](C)NC(=O)Cc4cccc(F)c4)nn3cn2)cc1`, the IC50 was > 40 µM (inactive). As for `O=C(CCc1nnc2n(Cc3ccccc3Cl)c(=O)c3ccccc3n12)NCc1ccccc1`, the figure is > 40 µM (inactive); as for `COc1cccc(Cn2cnc3c(NS(=O)(=O)c4ccc(Cl)cc4)c(C)c(C)cc32)c1`, > 40 µM (inactive); as for `CCC/C=C\C#CC/C=C\CCCCCCCC(=O)O`, 2.48 µM. As to `CC(C)=CCC[C@H](C(=O)O)[C@@H]1CC[C@]2(C)C3=C(CC[C@@]12C)[C@@]1(C)CCC(=O)C(C)(C)C1CC3` (stereo not given in full), the IC50 was > 40 µM (inactive). On to `COc1cccc(N2CCCN(C(=O)c3ccc4nc(C)[nH]c4c3)CC2)c1`, for which the IC50 is > 40 µM (inactive). The value for `COc1cc(NC(=O)Cn2c(=O)n(-c3ccc(CC(=O)NC4CCCC4)cc3)c(=O)c3ccccc32)cc(OC)c1` was > 40 µM (inactive). As to `Cc1c(NC(=O)/C=C/c2cccc(Cl)c2Cl)cccc1-n1cnnn1`, the IC50 was > 40 µM (inactive).

Take `CCCCCCCCCc1cc(OC(=O)c2c(CCCCCCCCC)cc(O)cc2O[C@@H]2O[C@H](CO)[C@@H](O)[C@H](O)[C@H]2O)cc(O)c1C(=O)O`: the IC50 was 6.23 µM. The value for `Cn1nc(C(=O)N2CCC(c3ccccc3)C2)c2c1-c1ccsc1CC2` (stereo not given) was 38.4 µM. Regarding `CCOc1ccc(-c2nnc(NC(=O)C3CCN(S(=O)(=O)c4ccc5c(c4)CCC5)CC3)o2)cc1`, the IC50 is > 40 µM (inactive). Consider `Cc1ccc(NC(=O)Cc2nnc3c(-c4nc(C5CC5)no4)cccn23)c(C)c1`, for which the IC50 was > 40 µM (inactive). The value for `CCc1ccc(NC(=O)CSc2nc3nccnc3c(=O)n2Cc2ccc(F)cc2)cc1` was > 40 µM (inactive). The value for `COc1ccc(-c2nc(-c3cc4cc(OC)ccc4[nH]c3=O)no2)cc1` was > 40 µM (inactive); that for `Cc1nnc(-c2cc(S(=O)(=O)N3CCN(c4ccc(F)cc4)CC3)c[nH]2)o1` was > 40 µM (inactive); that for `Cc1cc(C)c(O)c(-c2cc(C(=O)Nc3ccccc3Cl)[nH]n2)c1` was > 40 µM (inactive). Turning to `O=C(c1ccccc1CN1CCOCC1)N1CCOCC2(C1)CN(c1ccc(F)cc1)C(=O)O2` (stereo not given), the IC50 was > 40 µM (inactive). The value for `CSCCC(NC(=O)c1ccccc1)c1nc2ccccc2n1CC(=O)Nc1ccccc1` (stereo not given) was > 40 µM (inactive); that for `O=C(COc1ccc(N2CC(C(=O)NCc3ccc4c(c3)OCO4)CC2=O)cc1)Nc1ccc(F)cc1` (stereo not given) was > 40 µM (inactive); that for `O=C(NCCc1nc2ccccc2n1CCOc1ccccc1Cl)C1CCCCC1` was > 40 µM (inactive). The value for `Cc1nc2c(-c3ccc(Cl)cc3)c[nH]n2c(=O)c1Cc1ccccc1` was > 40 µM (inactive); that for `Cc1noc(-c2cc(=O)n(CC(=O)Nc3ccccc3Cl)c3ccccc23)n1` was > 40 µM (inactive). On to `COc1ccc(-c2cc3c(=O)n(CC(=O)Nc4ccccc4C)ccn3n2)cc1`, for which the IC50 was > 40 µM (inactive). Turning to `COCCCNC(=O)c1ccc(Cn2c(=O)c3ccccc3n(CC(=O)Nc3ccc(OC)cc3)c2=O)cc1`, the IC50 was > 40 µM (inactive). For the compound `Cc1ccc(C2=Nc3ccccc3N(CC(=O)Nc3cccc(C)c3C)C(=O)C2)cc1C`, the IC50 is > 40 µM (inactive).

Take `Cc1cccc(NC(=O)c2cc(-c3ccc(C)c(C)c3O)n[nH]2)c1`: the IC50 is > 40 µM (inactive). As for `COc1ccc(N2CC(c3nnc(NC(=O)CCc4ccccc4)s3)CC2=O)cc1` (stereo not given), the figure is > 40 µM (inactive); as for `Cc1ccccc1NC(=O)Nc1ccccc1OCc1cc(=O)n2cccc(C)c2n1`, > 40 µM (inactive). Take `Cc1nnc2ccc(-c3ccc(NC(=O)c4ccc(Br)o4)cc3)nn12`: the IC50 is > 40 µM (inactive).

As to `O=C(Nc1ccccc1)Nc1ccc(F)c(-c2nnc(-c3ccccc3)o2)c1`, the IC50 is > 40 µM (inactive). As for `CCn1cc2c(n1)c(=O)n(Cc1ccccc1)c(=O)n2CC(=O)Nc1ccc(C(C)C)cc1`, the figure is > 40 µM (inactive).

For `O=C(Nc1ccc(-n2cccc2)cc1)c1cccc([N+](=O)[O-])c1`, the IC50 is > 40 µM (inactive).

With `Cc1ccc(OCc2nc3ccccc3n2CC(=O)Nc2ccc(C(F)(F)F)cc2)cc1`, the IC50 is > 40 µM (inactive). `CCOc1ccc(C2SCC(=O)Nc3c2c(=O)[nH]n3C2CCCCC2)cc1` (stereo not given): the IC50 is > 40 µM (inactive). As for `Cc1ccc2cc(CNc3ccccc3)c(=O)n(CC(=O)Nc3ccccc3C)c2c1`, the IC50 was > 40 µM (inactive). For `CCCCCCCCCC(CCCCCCCCCC(=O)O)O[C@H]1O[C@@H](COC(C)=O)[C@H](O)[C@@H](O)[C@H]1OC(=O)CC(=O)O` (stereo not given in full), the IC50 was > 40 µM (inactive). For the compound `Cc1ccccc1NC(=O)Nc1cccc(-c2nnc(-c3ccccc3)o2)c1`, the IC50 is > 40 µM (inactive). In the case of `COc1ccc(C(=O)Nc2ccccc2C(=O)NC(Cc2ccc(O)cc2)C(=O)NNC(=O)c2ccccc2Cl)cc1` (stereo not given), the IC50 was > 40 µM (inactive). With `O=C(c1cc(S(=O)(=O)Nc2ccc(Cl)cc2)ccc1Cl)N1CCCc2ccccc21`, the IC50 was > 40 µM (inactive). Turning to `COC(=O)c1cc2c(ccn2-c2ccc(F)cc2)n1CC(=O)NC1CCCCC1`, the IC50 was > 40 µM (inactive).

Regarding `Cc1cccc(Cl)c1NC(=O)Nc1ccc(NC(=O)c2ccccc2O)cc1`, the IC50 was > 40 µM (inactive). The value for `CSc1ccccc1C(=O)Nc1sc2c(c1C(N)=O)CCC(C)C2` (stereo not given) was > 40 µM (inactive); that for `O=C(Nc1ccc2c(c1)CCC2)C1Cc2ccccc2CN1C(=O)c1ccccc1` (stereo not given) was > 40 µM (inactive); that for `O=C1CC(c2nc3ccccc3n2CCOc2ccc(Cl)cc2)CN1c1ccccc1` (stereo not given) was > 40 µM (inactive). On to `CC1=C(C)C(N(c2ccccc2)c2ccccc2)N(CCC(C)C)C1=O` (stereo not given), for which the IC50 is 37.7 µM. For `O=C(O)c1nccnc1C(=O)N1CCc2ccccc2C1`, the IC50 is > 40 µM (inactive).

With `COC(=O)c1ccc(NC(=O)/C=C/c2ccc(F)cc2)cc1`, the IC50 is > 40 µM (inactive). As for `Cc1cccc(NC(=O)Nc2nnc(CC(=O)NCc3ccccc3)s2)c1`, the figure is > 40 µM (inactive); as for `CC(OC(=O)c1cc(S(=O)(=O)Nc2ccccc2F)ccc1Cl)C(=O)Nc1ccc([N+](=O)[O-])cc1C(F)(F)F` (stereo not given), > 40 µM (inactive); as for `O=C(Nc1cccc(Br)c1)c1cc(-c2cccnc2)n[nH]1`, 33.6 µM.

With `COc1cc2c(=O)n(Cc3ccccc3)c(=O)n(CC(=O)N3CCCc4ccccc43)c2cc1OC`, the IC50 is > 40 µM (inactive). As for `O=C(Cn1c(=O)c2ccccc2n(CC(=O)Nc2cccc(F)c2)c1=O)NCCc1ccccc1`, the figure is > 40 µM (inactive). Turning to `Cc1ccc(C)c(NC(=O)Cn2cc(C(=O)C3CC3)c3ccccc32)c1`, the IC50 was 27.3 µM. In the case of `O=C(CCn1c(=O)c2ccccc2n(Cc2ccc(F)cc2Cl)c1=O)NCc1ccco1`, the IC50 is > 40 µM (inactive). Regarding `CNc1ncc(C(=O)N2CCOC(C(=O)N3CCCCCC3)C2)cn1` (stereo not given), the IC50 was > 40 µM (inactive). Consider `O=C(Nc1ccc(C(F)(F)F)cc1)C1CC(=O)N(c2ccc3c(c2)OCCO3)C1` (stereo not given), for which the IC50 was > 40 µM (inactive). Turning to `Cc1cccc(NC(=O)c2noc3c2CCc2sccc2-3)n1`, the IC50 was > 40 µM (inactive).

In the case of `CCN(c1ccc(NC(=O)CSc2nnc(-c3ccccc3)n2-c2ccc(OC)c(OC)c2)cc1)C(C)C`, the IC50 is > 40 µM (inactive).

Take `CC1CCCN(S(=O)(=O)c2ccc(-n3cnc(C(=O)NC4CC4)c3)nc2)C1` (stereo not given): the IC50 was > 40 µM (inactive). Take `CC1(C(=O)NCc2ccc(F)cc2)Cn2nc(-c3ccco3)cc2C(=O)N1c1ccc2c(c1)OCCO2` (stereo not given): the IC50 is > 40 µM (inactive). As for `Cc1ccc(NC(=O)c2ccc3nn(CC(=O)Nc4ccc(C)cc4C)c(=O)n3c2)cc1`, the figure is > 40 µM (inactive). The value for `Cc1cc(OCC(=O)Nc2ccc3c(c2)NC(=O)CO3)ccc1Cl` was > 40 µM (inactive); that for `CCC(=O)Nc1nc2cc(NC(=O)Nc3cccc(C)c3)ccc2s1` was > 40 µM (inactive); that for `O=C(CNC(=O)c1ccc2nc(-n3cccc3)sc2c1)NCc1ccccc1` was > 40 µM (inactive).

Take `O=C(Cn1nc(-c2ccccc2)cc(NC(=O)c2ccccc2)c1=O)Nc1ccc(F)cc1`: the IC50 was > 40 µM (inactive). In the case of `Cc1nc2c(nnn2C[C@H]2CCCN2C(=O)c2ccc(F)cc2)c(=O)[nH]1`, the IC50 was > 40 µM (inactive). Consider `CCc1ccc(NC(=O)Cc2nnc3cc(-c4nc(C)no4)ccn23)cc1`, for which the IC50 was 19.6 µM.

As for `Cc1nc(SCC(=O)NC(C)c2ccccc2)c2oc3ccccc3c2n1` (stereo not given), the IC50 is > 40 µM (inactive). For `COc1cc(OC)c(NC(=O)c2cc(-c3ccccn3)n[nH]2)cc1Cl`, the IC50 was > 40 µM (inactive). The value for `CCOc1ccc(CC(=O)Nc2ccc(-c3cn4cccnc4n3)cc2)cc1` was > 40 µM (inactive); that for `Cc1ccc(C(=O)O)cc1NC(=O)C(Sc1cccc(NC(=O)c2ccccc2C)c1)c1ccccc1` (stereo not given) was > 40 µM (inactive). As for `Cc1cccc(N2C(=O)/C(=C\c3ccc4c(c3)OCCO4)c3ccccc3C2=O)c1`, the figure is > 40 µM (inactive). As for `Cc1ccc2[nH]c(=O)c(-c3nc4ccccn4c3NCc3ccccc3)cc2c1`, the figure is > 40 µM (inactive). Turning to `COc1cccc2cc(-c3nnc(SCC(=O)c4ccc(F)cc4)n3C)oc12`, the IC50 was > 40 µM (inactive).

Consider `O=C(CCCn1c(=O)c2sccc2n(CC(=O)NCCC2=CCCCC2)c1=O)NCc1ccc2c(c1)OCO2`, for which the IC50 was > 40 µM (inactive). Take `CC(C)=CCC/C(C)=C/COc1ccc(/C=C2\C(=O)N(O)[C@@H](C)C(=O)N2O)cc1`: the IC50 was > 40 µM (inactive).

Regarding `CCN(CC)C(=O)c1sc(NC(=O)c2cc(-c3ccccc3Cl)nc3ccccc23)c(C(N)=O)c1C`, the IC50 was > 40 µM (inactive). The value for `O=C(CNC(=O)OCc1ccccc1)Nc1ccc(Br)cc1C(=O)c1ccccc1Cl` was > 40 µM (inactive); that for `Fc1ccccc1-c1nnc(C2(c3ccc4c(c3)OCO4)CCOCC2)o1` was > 40 µM (inactive).
